Assay results published in patent US20240058424A1, “NBP-14 FOR TREATING ALZHEIMER'S ASSOCIATED WITH DOWN'S SYNDROME” (NEURO-BIO LTD, priority 2020, published 2024).
“And” between values parts separate entries of the source, which are not always exact repeats. Identical values can stand only once. Like-named read-outs stand apart in the source and are kept apart here. Where a SMILES comes first, the peptide text is derived from it.

Columns and labels:
[1] = Blood/brain exposure to NBP-14 after intranasal administration (PK assessment); format: in vivo, mice; details: for level at 0.5 h / tissue level at time at 0.5 h: 5XFAD, mouse, inhaled or intranasal; for level at 0.5 h: blood, read-out: Blood Concentration; for tissue level at time at 0.5 h: brain, read-out: Brain Concentration
Experimental: Assessment of PK profile for NBP14, 10mg/kg, to allow PK/PD correlations • Satellite group of mice at T0W and T6W. • Mice from NOR test at T14W.
Group 3 TG NBP14: 5XFAD mice (n=3 for each PK) treated with NBP14 at the dose 10 mg/kg.
After 1 single treatment at the start of treatment (T0W) in a satellite group of mice.
After 6 weeks of treatment (T6W) in a satellite group of mice. The day of PK profile mice were treated with NBP14.
After 14 weeks of treatment (14W) in 2 group of mice from NOR cohorts.
On the day of PK study, mice were treated with NBP14 at 10mg/kg (IN) and blood/brain collected at 30 minutes after treatment.
An additional group of mice was subjected to blood/brain collection for NBP14 exposure without treatment on the same day at the terminal time point, after 14 weeks of treatment, to evaluate an eventual accumulation of test compound (table 1).
The inventors measured the concentration of nasally applied NBP-14 in the blood and the brain of mice, to determine whether NBP-14 was capable of crossing the blood brain barrier when applied intranasally.

transgenic Tg-5XFAD mice [2] = experiment: Novel Object Recognition (NOR) test for cognitive readout; format: in vivo
From the text: Assessment of Novel Object Recognition (NOR) test at the following time points: • T0W, basal NOR behaviour immediately before starting of the experiment. • T6W, 6 weeks after starting of treatment. • T14W, 14 weeks after starting of treatment.
Group 1 WT mice (n=15) used as control animal during the experimental procedure. No subject to treatment.
Group 2 TG VEH: 5XFAD mice (n=14) treated with vehicle of formulation (saline).
Group 3 TG NBP14: 5XFAD mice (n=28) treated with NBP14 at the dose 10 mg/kg.
NOR behavioural assessment time points: • Immediately before start of treatment (T0W) • 6 weeks after start of treatment (T6W) • 14 weeks after start of treatment (T14W)
Behaviour recorded on video for subsequent scoring for the object exploration. Object investigation has been defined as directing the nose towards the object (i.e., sniffing or touching with the nose) at a distance of 2 cm or less. Climbing and sitting on the objects is not considered to be object examination.
A criterion of minimal level of object exploration was used in the study to exclude animals with naturally low levels of spontaneous exploration: mice having a minimal level of object exploration of lOs during the test trail will be included in the study.
Results were expressed as the total time spent (seconds) by animal towards the objects. The recognition index (RI) was also calculated as follows: (time exploring the novel object)/(time exploring novel+familiar)*100.
The inventors utilised a “novel object recognition” test, which measures the difference of the time spent exploring an unknown (i.e. novel) object versus a known or familiar object to determine the ability of mice to discriminate between novel and familiar objections that can be used as in indication of memory. The inventors used this test to determine the ability of NBP-14 to reverse memory decline in the transgenic mouse, Tg 5XFAD, predisposed to develop amyloid precursor protein (APP) and therefore amyloid plaques, and ultimately, dementia.
The inventors then determined the recognition index of mice. A recognition index above 50% reflects the ability of mice to explore an unfamiliar object (novel) than a recently presented object.

transgenic Tg-5XFAD mice [3] = experiment: Behavioural scoring of grooming/sitting during NOR procedure; format: in vivo; details: chronic treatment, T1 and T2 phase of NOR procedure, 10 min each
Experimental: Grooming/sitting/locomotion was measured on the mice subjected to NOR testing [i.e., Wild Type data included at 14 weeks post treatment].
Behavioural scoring was assessed during the T1 (familiar) and T2 (novel) phase of NOR procedure (over 10 min each phase).

β-amyloid = experiment: Brain immunohistochemistry, β-amyloid (6E10 antibody); format: in vivo, mice; details: for Mean intensity of β-amyloid (6E10) compared to vehicle: 6 weeks of treatment
Experimental: (§1) Group 2 TG-VEH: 5xFAD mice treated with vehicle of formulation (saline).
(§2) Group 3 TG-NBP14: 5xFAD mice treated with NBP-14 at the dose 10 mg/kg.
(§3) Histological Time-Points: • After 1 single treatment at the start of treatment, in a satellite group of mice (T0W). • After 6 weeks of treatment (T6W) in a satellite group of mice. • After 14 weeks of treatment (14W) in a group of mice from NOR cohorts (analysis ongoing).
(§4) Brain samples from all Tg-5XFAD mice were fixed, cryosectioned and immunostained for detection of amyloid, phosphorylated Tau and gliosis using the antibodies listed in Table 1.
(§5) Serial sections were collected and every sixth section starting at the midline were immunostained for markers of AD pathology. A total of six sections per animal were used for quantitative analysis.
(§6) Having shown the ability of NBP-14 to reverse the cognitive decline observed in Tg-5XFAD mice as discussed above, the inventors then sought to determine the structural or physiological changes occurring in the brains of mice treated with NBP-14. The inventors utilised histological staining of the brain to determine the changes of various brain-located markers (i.e. phosphorylated Tau, NeuN, (3-amyloid, and Ibal) that are associated with cognitive decline in both 5XFAD mice and also mice that had been treated with NBP-14. These biomarkers were measured after acute treatment with NBP-14 and also six weeks after treatment.

phosphorylated Tau = experiment: Brain immunohistochemistry, phosphorylated Tau (AT180, AT8); format: in vivo, mice; details: for Intracellular phosphorylated Tau immunoreactivity (AT180): hippocampus and cortex of 5XFAD mice
Experimental: as §1, §2, §3, §4, §5, §6

[4] = test system: Iba1 (activated microglia); experiment: Brain immunohistochemistry, gliosis (Iba1-positive cells); format: in vivo, mice
Experimental: as §1, §2, §3, §4, §5
(§7) Having shown the ability of NBP-14 to reverse the cognitive decline observed in Tg-5XFAD mice as discussed above, the inventors then sought to determine the structural or physiological changes occurring in the brains of mice treated with NBP-14. […]

NeuN positive neurons = experiment: Brain immunohistochemistry, neuronal cell count (NeuN); format: in vivo, mice; details: cortex and hippocampus
Experimental: as §1, §2, §3, §4, §5, §7

5xFAD mice = experiment: Clinical signs during intranasal treatment of 5xFAD mice; format: in vivo; details: 30 mg/kg intranasal, dose lowered to 10 mg/kg from 2nd week
Experimental: Intranasal (IN, nose to brain) twice a week for 14 weeks (Volume of administration 10 μL/.

[5] = 10 mg/kg, 5XFAD mice, 10 mg/kg intranasal twice a week, T = 14W [terminal], sampling 30 min after administration
[6] = T = 14W [terminal], treated 14 weeks but no treated last day
[7] = acute treatment, cortex and hippocampus, visual inspection

CSCC[C@@H]1NC(=O)[C@H](Cc2ccc(O)cc2)NC(=O)[C@H](CO)NC(=O)[C@H](CO)NC(=O)[C@H](Cc2c[nH]c3ccccc23)NC(=O)[C@H](CCCNC(=N)N)NC(=O)[C@H](Cc2c[nH]cn2)NC(=O)[C@H](Cc2ccccc2)NC(=O)[C@H](CCC(=O)O)NC(=O)[C@H](C)NC(=O)[C@H](CCCCN)NC(=O)[C@H](Cc2c[nH]c3ccccc23)NC(=O)[C@H](Cc2c[nH]cn2)NC(=O)[C@H](C(C)C)NC1=O [NBP-14] (HELM PEPTIDE1{A.E.F.H.R.W.S.S.Y.M.V.H.W.K}$PEPTIDE1,PEPTIDE1,1:R1-14:R2$$$V2.0)
Brain Concentration ([1]; 5XFAD mice, 10 mg/kg intranasal, T = 0 (single treatment), sampling 30 min after administration): bql
level at 0.5 h [1, 5]: 202 ng/mL
level at 0.5 h ([1]; 10 mg/kg, 5XFAD mice, 10 mg/kg intranasal, T = 0 (single treatment), sampling 30 min after administration): 44.5 ng/mL
tissue level at time at 0.5 h ([1]; 10 mg/kg, 5XFAD mice, 10 mg/kg intranasal twice a week, T = 6W [intermediate], sampling 30 min after administration): 19.3 ng/g
tissue level at time at 0.5 h [1, 5]: 53 ng/g
BB Ratio ([1]; T = 14W [terminal], 10 mg/kg intranasal, 30 min after administration, 10 mg/kg): 0.26 and 0.21 and 0.30
Blood Concentration [1, 6]: bql
Brain Concentration [1, 6]: bql
Detection of NBP-14 in the brain ([1]; after acute treatment): no NBP-14 was observed in the brain
Detection of NBP-14 in the brain ([1]; intranasal, after both 6 weeks and 14 weeks of treatment): detected in the brain
Accumulation of the compound ([1]; mice treated for 14 weeks, not treated on the day of blood/brain collection): no accumulation
Recognition index (RI) compared to vehicle-treated 5xFAD mice (transgenic Tg-5XFAD mice [2]; 10 mg/kg, terminal time point (14 weeks), n=27): statistical significant difference
Time exploring the novel versus familiar object (transgenic Tg-5XFAD mice [2]; 5XFAD mice, 10 mg/kg intranasal twice a week, 6 weeks after treatment, n=28): no significant difference
Time spent exploring novel object versus familiar object (transgenic Tg-5XFAD mice [2]; 5XFAD mice, 10 mg/kg intranasal twice a week, 14 weeks after treatment, n=27): statistically significant difference
Cognitive performance compared to 5XFAD vehicle-treated mice (transgenic Tg-5XFAD mice [2]; 6 week time point of NOR testing): no statistically significant differences
Reduction in sitting behaviour seen in vehicle-treated Tg-5XFAD mice (transgenic Tg-5XFAD mice [3]): reversed
Mean intensity of β-amyloid (6E10) compared to vehicle (β-amyloid; cortex (P<0.05)): significant decrease
Mean intensity of β-amyloid (6E10) compared to vehicle (β-amyloid; hippocampus (P<0.005)): significant decrease
Extracellular amyloid plaques compared to vehicle-treated controls (β-amyloid; 14 weeks, cortex, hippocampus and basal forebrain): significantly reduced
Mean intensity of 6E10 (Aβ) compared to vehicle (β-amyloid; [7]): No differences
Intracellular phosphorylated Tau immunoreactivity (AT180) (phosphorylated Tau; 6 weeks treatment): no specific intracellular phosphorylated Tau immunoreactivity was detected
pTau detected with AT8 (pS202/pT205) in non-neuronal (NeuN negative) cells (phosphorylated Tau; 14 weeks chronic treatment, cortex and hippocampus, very low levels seen in vehicle-treated mice): not in mice treated with NBP-14
pTau detection (AT180) (phosphorylated Tau; 14 weeks chronic treatment, hippocampus, cortex, basal forebrain): no pTau (gold) was detected
Intracellular phosphorylated Tau immunoreactivity (AT180) (phosphorylated Tau; acute treatment): no specific intracellular phosphorylated Tau immunoreactivity was detected
Gliosis (Iba1-positive cells) compared to vehicle ([4]; 6 weeks of treatment, hippocampus): significant (P<0.005) decrease
Total number or density of Iba1-positive cells compared to vehicle [4, 7]: no differences
Total number or density of NeuN positive neurons compared to vehicle (NeuN positive neurons; 6 weeks of treatment): no differences
Total number or density of NeuN positive neurons compared to vehicle (NeuN positive neurons; acute treatment): no differences
Clinical signs (5xFAD mice): relevant clinical sign
